{
  "source": "patent US10399716B2",
  "about": "“Personal care compositions and hangers” (The Procter & Gamble Company, priority 2014, dated 2019)",
  "origin": "cited, not measured here",
  "data": [
    {"molecule": "OCCOc1ccccc1", "note": "[Phenoxyethanol]", "values": [
      {"measurement": "Log (water Solubility in mol/L)", "value": "−0.64", "unit": "log mol/L"}
    ]},
    {"molecule": "O=C(O)c1ccccc1O", "note": "[Salicylic acid]", "values": [
      {"measurement": "Log (water Solubility in mol/L)", "value": "−1.41", "unit": "log mol/L"}
    ]},
    {"molecule": "Oc1cc(Cl)ccc1Oc1ccc(Cl)cc1Cl", "note": "[Triclosan]", "values": [
      {"measurement": "Log (water Solubility in mol/L)", "value": "−2.46", "unit": "log mol/L"}
    ]},
    {"molecule": "C=CCCCCCCCCC(=O)O", "note": "[Undecylenic Acid]", "values": [
      {"measurement": "Log (water Solubility in mol/L)", "value": "−3.15", "unit": "log mol/L"}
    ]},
    {"molecule": "OCc1ccccc1", "note": "[benzyl Alcohol]", "values": [
      {"measurement": "Log (water Solubility in mol/L)", "value": "−0.47", "unit": "log mol/L"}
    ]},
    {"molecule": "CCCCCCC(O)CO", "note": "(stereo not drawn) [caprylyl glycol]", "values": [
      {"measurement": "Log (water Solubility in mol/L)", "value": "−3.08", "unit": "log mol/L"}
    ]},
    {"molecule": "CCOC(=O)c1ccc(O)cc1", "note": "[ethyl paraben]", "values": [
      {"measurement": "Log (water Solubility in mol/L)", "value": "−1.91", "unit": "log mol/L"}
    ]},
    {"molecule": "OCCc1ccccc1", "note": "[phenethyl alcohol]", "values": [
      {"measurement": "Log (water Solubility in mol/L)", "value": "−0.83", "unit": "log mol/L"}
    ]},
    {"molecule": "C/C=C/C=C/C(=O)O", "note": "[sorbic acid]", "values": [
      {"measurement": "Log (water Solubility in mol/L)", "value": "−0.33", "unit": "log mol/L"}
    ]}
  ]
}
